Data set [1] concerns the target T1, Glutamate receptor ionotropic, NMDA 2B (Homo sapiens, UniProt Q05586+Q13224). Put plainly: Displacement of NMDA receptor-specific [3H]ifenprodil binding to recombinant human NMDA receptor, NR2B subtype expressed in L cells. The data set is classed as cell-based.
Data set [2] is described as follows: Bioavailability in rat. Type of data set: ADME, organism-based. Particulars: in vivo.
Data set [3] can be described thus: Half life period in rat. The data set is classed as ADME, organism-based. Particulars: in vivo.
The target of data set [4] is Glutamate receptor ionotropic, NMDA 2A (Homo sapiens, UniProt Q05586+Q12879). Put plainly: Inhibition of the response to NMDA glutamate/glycine receptor NR2A subtype was determined using FLIPR assay.
Sequence of Glutamate receptor ionotropic, NMDA 2A (Q12879 whole entry, one chain of several): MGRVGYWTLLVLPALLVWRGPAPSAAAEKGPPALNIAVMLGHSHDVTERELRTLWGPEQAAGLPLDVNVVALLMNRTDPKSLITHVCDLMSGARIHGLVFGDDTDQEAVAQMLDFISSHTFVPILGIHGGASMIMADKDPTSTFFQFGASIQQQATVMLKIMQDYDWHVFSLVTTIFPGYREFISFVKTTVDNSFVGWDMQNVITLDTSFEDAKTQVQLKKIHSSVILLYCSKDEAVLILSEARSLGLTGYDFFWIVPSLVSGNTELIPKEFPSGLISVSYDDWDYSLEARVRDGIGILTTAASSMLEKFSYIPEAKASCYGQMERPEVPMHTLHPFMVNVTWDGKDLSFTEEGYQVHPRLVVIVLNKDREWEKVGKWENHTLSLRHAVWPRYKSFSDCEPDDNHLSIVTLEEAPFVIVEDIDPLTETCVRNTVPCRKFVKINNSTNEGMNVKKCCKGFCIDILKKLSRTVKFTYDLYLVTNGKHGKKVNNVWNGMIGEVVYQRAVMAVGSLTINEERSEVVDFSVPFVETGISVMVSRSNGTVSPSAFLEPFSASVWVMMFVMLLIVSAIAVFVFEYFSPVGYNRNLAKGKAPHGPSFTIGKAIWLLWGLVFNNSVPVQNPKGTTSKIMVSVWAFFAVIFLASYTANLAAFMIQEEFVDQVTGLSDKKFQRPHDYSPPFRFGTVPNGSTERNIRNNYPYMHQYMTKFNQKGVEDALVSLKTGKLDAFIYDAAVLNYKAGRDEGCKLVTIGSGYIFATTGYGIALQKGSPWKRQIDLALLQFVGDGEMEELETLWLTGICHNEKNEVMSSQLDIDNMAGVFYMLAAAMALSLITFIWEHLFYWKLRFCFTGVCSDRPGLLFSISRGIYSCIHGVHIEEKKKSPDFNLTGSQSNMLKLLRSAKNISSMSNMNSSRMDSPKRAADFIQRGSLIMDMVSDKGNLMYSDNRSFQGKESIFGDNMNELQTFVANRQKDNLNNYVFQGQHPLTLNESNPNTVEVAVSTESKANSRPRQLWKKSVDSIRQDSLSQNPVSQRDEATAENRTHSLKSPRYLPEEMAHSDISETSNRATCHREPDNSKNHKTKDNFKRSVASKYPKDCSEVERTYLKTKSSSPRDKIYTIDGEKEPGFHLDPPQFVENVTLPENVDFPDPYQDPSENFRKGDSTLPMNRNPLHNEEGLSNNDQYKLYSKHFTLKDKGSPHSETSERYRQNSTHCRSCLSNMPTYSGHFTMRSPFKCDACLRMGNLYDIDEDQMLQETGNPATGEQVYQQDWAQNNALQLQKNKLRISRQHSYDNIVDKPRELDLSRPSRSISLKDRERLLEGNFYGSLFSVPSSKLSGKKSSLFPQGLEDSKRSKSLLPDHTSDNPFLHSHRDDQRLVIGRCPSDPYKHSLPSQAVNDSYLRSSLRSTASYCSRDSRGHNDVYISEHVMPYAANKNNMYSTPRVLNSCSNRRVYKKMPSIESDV
The target in data set [5] is T1, Glutamate receptor ionotropic, NMDA 2B. Put plainly: Inhibition of the response to NMDA glutamate/glycine receptor NR2B subtype was determined using FLIPR assay.
Data set [6] concerns Rattus norvegicus. Put plainly: Efficacy was determined by scoring behavioral responses to noxious stimuli in carrageenan-induced hyperalgesia assay in the rat after oral administration. The data set is classed as functional.

The values that follow come from ChEMBL document CHEMBL1136592, “Orally efficacious NR2B-selective NMDA receptor antagonists” (Bioorg Med Chem Lett, 2003).

As usually defined, the Ki is the dissociation constant of the complex between target and ligand, obtained from inhibition or displacement. Usually bioavailability stands for the share of a dose that reaches the circulation, judged against a reference dose that is usually intravenous. High values mean good availability, low ones poor availability. For orientation: half-life means how long it takes for the measured level to halve. In general, IC50 refers to the concentration needed to halve the response being measured. A higher IC50 goes with lower potency. One may read the ED50 as the dose at which the effect has come halfway, by size or by number of responders. High values mean weaker potency, low ones greater potency.

T1 sequence (Q13224 whole entry, one chain of several): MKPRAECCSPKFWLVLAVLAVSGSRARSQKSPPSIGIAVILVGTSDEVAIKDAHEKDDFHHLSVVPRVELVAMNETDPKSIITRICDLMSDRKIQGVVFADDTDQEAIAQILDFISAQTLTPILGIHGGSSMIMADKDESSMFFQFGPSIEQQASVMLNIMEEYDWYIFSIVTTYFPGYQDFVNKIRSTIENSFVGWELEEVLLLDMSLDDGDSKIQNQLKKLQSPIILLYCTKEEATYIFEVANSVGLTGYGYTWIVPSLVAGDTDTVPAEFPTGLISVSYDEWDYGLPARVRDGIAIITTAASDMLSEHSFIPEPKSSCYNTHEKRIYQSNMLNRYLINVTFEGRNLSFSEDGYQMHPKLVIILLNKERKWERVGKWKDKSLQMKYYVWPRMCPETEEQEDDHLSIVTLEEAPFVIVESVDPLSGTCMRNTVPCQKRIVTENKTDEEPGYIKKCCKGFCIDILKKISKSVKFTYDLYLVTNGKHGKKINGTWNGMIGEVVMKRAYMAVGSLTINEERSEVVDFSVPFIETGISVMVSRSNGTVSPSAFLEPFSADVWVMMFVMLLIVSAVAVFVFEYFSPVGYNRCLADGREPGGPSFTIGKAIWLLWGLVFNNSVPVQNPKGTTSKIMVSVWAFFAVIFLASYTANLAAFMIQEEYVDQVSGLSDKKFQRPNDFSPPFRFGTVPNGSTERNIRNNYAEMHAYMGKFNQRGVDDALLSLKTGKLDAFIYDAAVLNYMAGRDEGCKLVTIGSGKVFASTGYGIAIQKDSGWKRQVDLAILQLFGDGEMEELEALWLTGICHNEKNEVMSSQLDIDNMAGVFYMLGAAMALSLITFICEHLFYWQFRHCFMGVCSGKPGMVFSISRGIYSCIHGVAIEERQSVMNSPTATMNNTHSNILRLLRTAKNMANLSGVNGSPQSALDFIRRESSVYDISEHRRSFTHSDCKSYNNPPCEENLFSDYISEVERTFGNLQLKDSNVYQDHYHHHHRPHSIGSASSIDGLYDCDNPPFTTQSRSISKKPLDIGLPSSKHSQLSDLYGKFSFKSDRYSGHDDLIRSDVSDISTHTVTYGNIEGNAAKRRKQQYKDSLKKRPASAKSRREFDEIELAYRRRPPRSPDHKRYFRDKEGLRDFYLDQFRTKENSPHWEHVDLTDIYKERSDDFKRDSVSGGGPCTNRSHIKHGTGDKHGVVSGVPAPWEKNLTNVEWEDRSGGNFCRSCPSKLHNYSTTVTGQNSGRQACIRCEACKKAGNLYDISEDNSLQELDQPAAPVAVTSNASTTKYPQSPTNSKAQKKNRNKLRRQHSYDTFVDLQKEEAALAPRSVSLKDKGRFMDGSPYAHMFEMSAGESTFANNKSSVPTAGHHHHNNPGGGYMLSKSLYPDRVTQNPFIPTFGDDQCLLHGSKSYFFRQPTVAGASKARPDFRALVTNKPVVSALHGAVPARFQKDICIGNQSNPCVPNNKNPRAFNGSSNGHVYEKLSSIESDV

Turning to `NC(=NCc1cccc(Cl)c1)c1ccccc1F`, the Ki in data set [1] is greater than 15000 nM.
Regarding `N=C(/C=C/c1ccccc1)NCc1ccccc1`, in data set [1], the inhibitory constant (Ki) was 9 nM.
In the case of `NC(=NCc1ccccc1C(F)(F)F)c1ccc(OC(F)(F)F)cc1`, in data set [2], the bioavailability is 100%. The half-life in data set [3] came to 2.45 h. Also, the IC50 in data set [4] was greater than 10000 nM; in data set [5], 47 nM. Further, in data set [1], the Ki is 72 nM. It took a dose of 5.5 mg/kg to reach the 50% effect level in data set [6] (ED50).
As to `N=C(NCc1ccccc1)c1ccc(C(F)(F)F)cc1`, in data set [5], the IC50 came out at 360 nM. Further, in data set [1], the Ki amounted to 480 nM.
The compound `NC(=NCc1cccc(Cl)c1)c1ccc(C(F)(F)F)cc1` returned an IC50 in data set [5] of 32 nM. For the same compound, in data set [1], the Ki is 20 nM.
For `COc1ccccc1C/N=C(\N)c1ccc(OC(F)(F)F)cc1`, in that order: 4.1 nM and 5.7 nM.
On to `Cc1cc(C)cc(C/N=C(\N)c2ccc(OC(F)(F)F)cc2)c1`, for which the bioavailability in data set [2] was determined as 4%. In data set [3], this compound yielded a half-life of 1.53 h. Moreover, the IC50 in data set [4] was greater than 10000 nM; in data set [5] it was 4.2 nM. In addition, in data set [1], the Ki turned out to be 1.2 nM. The ED50 in data set [6] is greater than 30 mg/kg.
As to `NC(=NCc1cccc(Cl)c1)c1ccc(Cl)c(Cl)c1`, the bioavailability in data set [2] came out at 44%. Further, in data set [3], the half-life was determined as 1.5 h. Moreover, the IC50 in data set [4] is greater than 10000 nM; in data set [5], 110 nM. Moreover, in data set [1], the Ki was 16 nM. In addition, in data set [6], it took a dose of 14 mg/kg to reach the 50% effect level (ED50).
In turn, `N=C(NCc1cccc(Cl)c1)c1ccc(F)cc1` gave an IC50 in data set [5] of 450 nM. For the same compound, in data set [1], the inhibition constant Ki amounted to 600 nM.
As to `COc1ccc(C/N=C(\N)c2ccc(OC(F)(F)F)cc2)cc1`, the Ki in data set [1] is 1100 nM.
The compound `N=C(NCc1cc(Cl)cc(Cl)c1)c1ccc(OC(F)(F)F)cc1` came in with a bioavailability in data set [2] of 68%. The half-life in data set [3] came out at 7 h. For the same compound, the figures for the half-maximal inhibitory concentration (IC50) in data set [4] and in data set [5] were greater than 10000 nM and 24 nM, respectively. Also, the Ki in data set [1] came to 0.6 nM. In data set [6], this compound displayed an ED50 of 16 mg/kg.
For the compound `N=C(NCc1ccccc1)c1ccc(OC(F)(F)F)cc1`, it took 46 nM to reach half-maximal inhibition in data set [5] (IC50). The Ki in data set [1] is 120 nM.
For `N=C(NCc1cccc(Cl)c1)c1ccc(Cl)cc1`, in that order: 160 nM and 63 nM.
Take `N=C(NCc1ccccc1OC(F)(F)F)c1ccc(Cl)c(Cl)c1`: the bioavailability in data set [2] came to 31%. This compound showed a half-life in data set [3] of 3.05 h. The figures for the IC50 in data set [4] and in data set [5] were greater than 10000 nM and 57 nM, respectively. Also, the Ki in data set [1] was 12 nM. In data set [6], this compound displayed a median effective dose (ED50) of 7.5 mg/kg.
In data set [5], `NC(=NCc1ccccc1)c1ccc(Cl)cc1` had a half-maximal inhibitory concentration (IC50) of 720 nM. Besides, in data set [1], the Ki is 970 nM.
Turning to `Cc1cc(C)cc(C/N=C(\N)c2ccc(C(F)(F)F)cc2)c1`, the IC50 in data set [5] is 8.7 nM. The Ki in data set [1] turned out to be 3.9 nM.
In data set [5], `NC(=NCc1cccc(Cl)c1)c1cccc(Cl)c1` displayed a 50% inhibitory concentration (IC50) of 420 nM. In addition, in data set [1], the Ki is 800 nM.
In data set [5], `N=C(NCc1cccc(C(F)(F)F)c1)c1ccc(C(F)(F)F)cc1` came in with an IC50 of 660 nM. Moreover, the Ki in data set [1] is 700 nM.
With `N=C(NCc1ccccc1)c1ccc(-c2ccccc2)cc1`, the Ki in data set [1] was 1800 nM.
Still for that read-out and setting: the figure for `NC(=NCc1cccc(Cl)c1)c1ccccc1Cl` is 3900 nM.
`COc1cccc(C/N=C(\N)c2ccc(OC(F)(F)F)cc2)c1` returned an IC50 in data set [5] of 9.7 nM. In addition, the Ki in data set [1] stood at 23 nM.
On to `NC(=NCc1ccccc1)c1ccccc1`, for which the Ki in data set [1] is greater than 15000 nM.
On to `N=C(NCc1cccc(Cl)c1)c1cccc(F)c1`, for which the Ki in data set [1] is 2000 nM.
`N=C(NCc1ccccc1Cl)c1ccc(C(F)(F)F)cc1`: the half-maximal inhibitory concentration (IC50) in data set [5] came out at 48 nM. Besides, the inhibitory constant (Ki) in data set [1] came out at 56 nM.
